From US20250368644A1, “DURLOBACTAM CRYSTALLINE FORMS” (Entasis Therapeutics Limited, priority 2022, published 2025)
Structures can show the parent of a compound that is named as a salt.

Assays:
[1] = Stability of DUR, its salts and crystalline forms (observations in words); settings: for Stability of the crystalline form: DUR-Ca polymorphs, solvent systems, Calcium salt
Protocol: (§1) Attempts were undertaken to form DUR-Ca via salt metathesis by slurry reaction of DUR-TBA salt with six calcium salts (CaCl2), CaBr2, Ca(BF4)2. Ca(OAc)2, Calcium D-gluconate and Calcium citrate) to find an alternative method to the ion exchange resin, which is very time consuming and costly to scale up.
A range of crystallization experiments were carried out, including evaporations, ambient temperature slurries, vapor stress at ambient temperature and temperature cycling, in many different solvents, or solvent mixtures, using crystalline DUR-Ca, DUR-TBA, and DUR-TEA salts as seeds.

[2] = system: β-lactamases commonly found in A. baumannii; settings: preclinical studies, background statement; cited from earlier work
[3] = Salt slurry experiments with DUR-Ca Form A (solid form after slurry in solvents); assay type: physicochemical; settings: 3 days
Source text: DUR-Ca Form A was slurred in 26 solvents for 3 days. A new distinct form (assigned as Form C) was obtained in most of solvents (Table 19).

[4] = Solubility of the salt in solvents (observations in words); assay type: physicochemical
Source text: as §1

In the case of CC1=C[C@@H]2CN(C(=O)N2OS(=O)(=O)O)[C@@H]1C(N)=O [DUR, Durlobactam], the “Chemical stability (degradation)” value ([1]; free acid) is listed as “readily degraded” and the “Inhibition of β-lactamases” value [2] is listed as “inhibit the β-lactamases commonly found in A. baumannii”.
In the case of CC1=C[C@@H]2CN(C(=O)N2OS(=O)(=O)O)[C@@H]1C(N)=O [DUR-Ca Form A, Durlobactam Calcium salt], the “Result (solid form after slurry)” value ([3]; Slurry 1, Methanol) was “Form C”, the “Result (solid form after slurry)” value ([3]; Slurry 2, Ethanol) was “Form C” and the “Result (solid form after slurry)” value ([3]; Slurry 3, IPA) was “Form C”. The “Result (solid form after slurry)” value ([3]; Slurry 4, THF) was “Amorphous”, the “Result (solid form after slurry)” value ([3]; Slurry 5, EtOAc) was “Form C” and the “Result (solid form after slurry)” value ([3]; Slurry 6, Acetone) was “Form C”. The “Result (solid form after slurry)” value ([3]; Slurry 7, Isobutanol) was “Form C”, the “Result (solid form after slurry)” value ([3]; Slurry 8, Isopropyl Acetate) was “Form C” and the “Result (solid form after slurry)” value ([3]; Slurry 9, Acetonitrile) was “Form C”. The “Result (solid form after slurry)” value ([3]; Slurry 10, 2-Butanone) was “Form C”, the “Result (solid form after slurry)” value ([3]; Slurry 11, Toluene) was “Mixture of Form A and C” and the “Result (solid form after slurry)” value ([3]; Slurry 13, Tert-butyl methyl ether) was “Form C”. For the same molecule, the “Result (solid form after slurry)” value ([3]; Slurry 14, Propanol) was “Form C”, the “Result (solid form after slurry)” value ([3]; Slurry 15, Isopentanol) was “Form C” and the “Result (solid form after slurry)” value ([3]; Slurry 16, Butyl acetate) was “Form C”. For the same molecule, the “Result (solid form after slurry)” value ([3]; Slurry 17, Ethyl Formate) was “Form C”, the “Result (solid form after slurry)” value ([3]; Slurry 18, 1,4-dioxane) was “Amorphous” and the “Result (solid form after slurry)” value ([3]; Slurry 19, Butanol) was “Form C”. The “Result (solid form after slurry)” value ([3]; Slurry 20, Heptane) was “Form C”, the “Result (solid form after slurry)” value ([3]; Slurry 21, Pentane) was “Form C” and the “Result (solid form after slurry)” value ([3]; Slurry 22, Cyclohexane) was “Form C”. The “Result (solid form after slurry)” value ([3]; Slurry 23, Methylisobutyl Ketone) was “Form C”, the “Result (solid form after slurry)” value ([3]; Slurry 24, Xylene) was “Form C” and the “Result (solid form after slurry)” value ([3]; Slurry 25, Isobutyl acetate) was “Form C”. For the same molecule, the “Result (solid form after slurry)” value ([3]; Slurry 26, Ethyl ether) was “Form C” and the “Stability of the crystalline form” value ([1]; listed as Crystalline form A) was “unstable in certain solvent systems”.
In the case of CC1=C[C@@H]2CN(C(=O)N2OS(=O)(=O)O)[C@@H]1C(N)=O [DUR-Ca Form C, Durlobactam Calcium salt], the “Stability of the crystalline form” value ([1]; listed as crystalline form C) was “more stable”.
In the case of CC1=C[C@@H]2CN(C(=O)N2OS(=O)(=O)O)[C@@H]1C(N)=O [DUR-TBA, Durlobactam Tetrabutylammonium salt], the Solubility ([4]; EtOH) was “soluble” and the Solubility ([4]; most solvents) was “soluble in most solvents”.
With CC1=CC2CN(C(=O)N2OS(=O)(=O)O)C1C(N)=O.c1ccncc1 (centres unmarked) [pyridine salt] the “Stability of the salt as isolated solid” value [1] was “not stable”.
